Experiment in all cases: NCI anticancer screen, dose series, 48 h
Assay [1] relates to SK-MEL-28 melanoma.
In assay [2] the test system is SW-620 colon.
Assay [3] relates to CCRF-CEM leukemia.
In assay [4] the test system is U251 CNS.
Assay [5] has as its system SK-MEL-2 melanoma.
Assay [6] deals with MOLT-4 leukemia.
For assay [7], the system named is SNB-19 CNS.
Assay [8] relates to UACC-257 melanoma.
Assay [9] deals with MCF7 breast.
Assay [10] concerns OVCAR-5 ovarian.
In assay [11] the test system is SF-539 CNS.
The test system of assay [12] is CAKI-1 renal.
For assay [13], the system named is MDA-MB-231 breast.
Assay [14] concerns SF-268 CNS.
The subject of assay [15] is A549 NSCLC.
Assay [16] concerns HOP-92 NSCLC.
Assay [17] relates to NCI-H23 lung.
In assay [18] the test system is UO-31 renal.
Assay [19] deals with HOP-62 NSCLC.

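Growth conditions: 96-well plates. Treatment: test compound, 48 hours, 5 concentrations. Analysis: linear interpolation between bracketing concentrations; unreached endpoints set to highest concentration. At the TGI there is no net growth.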 A value given as a limit tells only on which side of the number the result lay.

For the compound `C=C(C)[C@H]1C[C@@H]2O[C@@](O)(/C(C)=C\C(=O)/C=C(/C)C[C@H]3OC(=O)[C@@]24O[C@H]34)[C@@H]1O`, the TGI in assay [1], in assay [2], in assay [3], in assay [4], in [5] and in assay [6] was more than 100 µM throughout. For the same compound, the TGI in assay [7], in assay [8], in [9], in assay [10], in assay [11] and in [12] was more than 100 µM throughout. Besides, the TGI in [13], in [14], in assay [15] and in assay [16] was more than 100 µM in each case.
For the compound `COC(=O)Cc1c(/C=C/C(C)(C)n2cnc(CCN3C(=O)CCC3=O)c2)[nH]c2ccccc12`, the TGI in assay [1], in assay [2], in assay [3], in assay [17], in [18] and in assay [4] was more than 100 µM throughout. For the same compound, the TGI in assay [5], in [6], in [7], in assay [8], in assay [9] and in assay [10] was more than 100 µM each time. Also, the TGI in [11], in assay [12], in assay [13], in assay [14], in assay [15] and in [16] was more than 100 µM throughout.
As for `CC(C)(C)C1(O)C=C(O)C(=O)N1NC(=O)c1ccccc1Nc1ccccc1` (stereo not drawn), the TGI in assay [1] was more than 100 µM; in assay [2], more than 100 µM; in [3] it was 57.6 µM; in [17], more than 100 µM; in [18], more than 100 µM; in assay [4], more than 100 µM. Further, the TGI in [5] is more than 100 µM; in assay [6], 29 µM; in assay [7], more than 100 µM; in [8] it was 72.2 µM; in assay [9], more than 100 µM; in [10] it was more than 100 µM. In addition, the TGI in assay [11], in [12], in assay [13], in assay [14], in assay [15] and in assay [16] was more than 100 µM throughout.
As for `CC1C2(C)OC(=N)C(C#N)(C(C)O2)C1(C#N)C#N` (stereo not drawn), the TGI is 88.6 µM in [1]; 43 µM in assay [2]; 51.3 µM in assay [3]; 86.8 µM in assay [17]; more than 100 µM in [18]; 50 µM in assay [4]. Moreover, the TGI in [5] was 46.6 µM; in assay [6], more than 100 µM; in assay [8], 46 µM; in assay [9], 61.9 µM; in [10], more than 100 µM; in assay [11], 47.1 µM. For the same compound, the TGI was 26.4 µM in assay [12]; 41.6 µM in [13]; more than 100 µM in assay [14]; more than 100 µM in assay [15]; 37.6 µM in [16].
With `CC(=O)C1=C(C)N2C(=NC3=C(CCc4ccccc43)C2c2cccc(Br)c2)S1` (stereo not drawn), the TGI in [1], in [2], in [3], in [17], in assay [18] and in assay [4] was more than 100 µM throughout. In addition, the TGI in assay [5], in assay [7], in assay [8], in [9], in [10] and in [11] was more than 100 µM in each case. For the same compound, the TGI in assay [13], in [14], in assay [15], in assay [16] and in assay [19] was more than 100 µM each time.
With `COc1cc([C@@H]2c3cc4c(cc3[C@@H](OC3OC5COC(C)OC5C(OC(=O)CN5CCN(C)CC5)C3OC(=O)CN3CCN(C)CC3)C3COC(=O)[C@@H]32)OCO4)cc(OC)c1OC(=O)CN1CCN(C)CC1` (stereo partly drawn), the TGI in assay [2] is more than 100 µM; in assay [3], 46.6 µM; in assay [17], more than 100 µM; in [18], more than 100 µM; in assay [4] it was more than 100 µM; in assay [5], more than 100 µM. Further, the TGI in [6] is 42.1 µM; in [7], more than 100 µM; in [8] it was more than 100 µM; in assay [9], more than 100 µM; in assay [10] it was more than 100 µM; in [11] it was 73.4 µM. The TGI in [12], in [13], in assay [14], in assay [16] and in assay [19] was more than 100 µM in each case.
Take `CC1OC(OC2C(CO)OC(O[C@H]3CC[C@@]4(C)C(=CC[C@H]5[C@@H]6C[C@@H]7O[C@](O)(CC[C@H](C)COC8OC(CO)C(O)C(O)C8O)[C@@H](C)[C@@H]7[C@@]6(C)CC[C@@H]54)C3)C(OC3OC(C)C(O)C(O)C3O)C2O)C(O)C(O)C1O` (stereo partly drawn): the TGI in assay [1] was 12 µM; in assay [2], 4.02 µM; in assay [3] it was 4.47 µM; in assay [17], 17.4 µM; in assay [18] it was 13.3 µM; in [4], more than 33 µM. Also, the TGI is 20 µM in assay [5]; 8.65 µM in [7]; more than 49.9 µM in assay [8]; more than 65.5 µM in assay [9]; more than 49.1 µM in assay [10]; more than 21.6 µM in [11]. Moreover, the TGI in [12] stood at 3.61 µM; in assay [13], 30.8 µM; in assay [14] it was 11.5 µM; in [15], 5.55 µM; in assay [16], 12.7 µM; in assay [19], 6.04 µM.
Take `CC1=CC(=O)C(=CN2C(=O)/C(=C\c3cccnc3)NC2=S)C(=O)O1`: the TGI in [1], in assay [2], in assay [17], in assay [18], in assay [4] and in [5] was more than 100 µM throughout. The TGI in assay [6], in [7], in assay [8], in [9], in assay [10] and in [11] was more than 100 µM throughout. The TGI in assay [12], in assay [13], in assay [15], in [16] and in [19] was more than 100 µM each time.

For the origin of these results see PubChem BioAssay (NCI).
